Assays:
[1] = Metabolic stability in human liver microsomes at 0.5 uM by LC-MS/MS analysis in presence of NADPH; type: ADME
[2] = AUC (0 to 6 hrs) in cannula implanted rat at 5 mg/kg administered through oral gavage after 24 hrs by LC-MS/MS analysis; type: ADME, organism-based; design: dose 5 mg/kg, time < 6 hr, route oral; settings: in vivo
[3] = tested on: Human immunodeficiency virus 1; experiment: Antiviral activity against wild type HIV1 NL4-3 habouring Gag protein delta V370 infected in human MT2 cells after 4 to 5 days by dual-luciferase reporter gene assay; type: functional, organism-based; settings: Human immunodeficiency virus 1, NL4-3, MT2
[4] = Plasma clearance in cannula implanted rat at 1 mg/kg, iv by LC-MS/MS analysis; type: ADME, organism-based
[5] = Cytotoxicity against human MT2 cells; type: cell-based
[6] = tested on: Human immunodeficiency virus 1; experiment: Antiviral activity against wild type HIV1 NL4-3 habouring Gag protein V370A mutant infected in human MT2 cells after 4 to 5 days by dual-luciferase reporter gene assay; type: functional, organism-based; settings: Human immunodeficiency virus 1, NL4-3, MT2
[7] = Metabolic stability in rat liver microsomes at 0.5 uM by LC-MS/MS analysis in presence of NADPH; type: ADME
[8] = tested on: Human immunodeficiency virus 1; experiment: Antiviral activity against wild type HIV1 NL4-3 infected in human MT2 cells after 4 to 5 days by dual-luciferase reporter gene assay; type: functional, organism-based; settings: Human immunodeficiency virus 1, NL4-3, MT2
[9] = tested on: Human immunodeficiency virus 1; experiment: Antiviral activity against wild type HIV1 NL4-3 infected in human MT2 cells after 4 to 5 days by dual-luciferase reporter gene assay in presence of human serum albumin; type: functional, organism-based; settings: Human immunodeficiency virus 1, NL4-3, MT2
[10] = Cmax in cannula implanted rat at 5 mg/kg administered through oral gavage after 24 hrs by LC-MS/MS analysis; type: ADME, organism-based; design: dose 5 mg/kg, route oral; settings: in vivo
[11] = tested on: Human immunodeficiency virus 1; experiment: Antiviral activity against wild type BVM-resistant HIV1 NL4-3 habouring Gag protein T371A mutant infected in human MT2 cells after 4 to 5 days by dual-luciferase reporter gene assay; type: functional, organism-based; settings: Human immunodeficiency virus 1, NL4-3, MT2
[12] = Bioavailability in cannula implanted rat at 5 mg/kg administered through oral gavage after 24 hrs by LC-MS/MS analysis; type: ADME, organism-based; settings: in vivo

| SMILES | half-life at 0.5 µM [1] [h] | AUC(0-t) at 6 h [2] [µM·h] | EC50 [3] [nM] | clearance [4] [mL/min/kg] | CC50 [5] [nM] | EC50 [6] [nM] | half-life at 0.5 µM [7] [h] | EC50 [8] [nM] | EC50 [9] [nM] | Cmax [10] [nM] | EC50 [11] [nM] | bioavailability [12] [%] |
| --- | --- | --- | --- | --- | --- | --- | --- | --- | --- | --- | --- | --- |
| C=C(C)[C@@H]1CC[C@]2(C(=O)NCCN(CC)CC(=O)O)CC[C@]3(C)[C@H](CC[C@@H]4[C@@]5(C)CC=C(c6ccc(C(=O)O)cc6)C(C)(C)[C@@H]5CC[C@]43C)[C@@H]12 | > 2 | 0.22 | 64 | 26.7 | 17000 | 9 | > 2 | 3 | – | – | – | – |
| C=C(C)[C@@H]1CC[C@]2(C(=O)NC)CC[C@]3(C)[C@H](CC[C@@H]4[C@@]5(C)CC=C(c6ccc(C(=O)O)cc6)C(C)(C)[C@@H]5CC[C@]43C)[C@@H]12 | – | – | – | – | 7000 | 252 | – | 10 | 28 | – | – | – |
| C=C(C)[C@@H]1CC[C@]2(C(=O)N[C@@H](CN(C)C)C(=O)O)CC[C@]3(C)[C@H](CC[C@@H]4[C@@]5(C)CC=C(c6ccc(C(=O)O)cc6)C(C)(C)[C@@H]5CC[C@]43C)[C@@H]12 | – | – | > 160 | – | 25000 | 772 | – | 46 | – | – | – | – |
| C=C(C)[C@@H]1CC[C@]2(C(=O)NCC(C)(C)N)CC[C@]3(C)[C@H](CC[C@@H]4[C@@]5(C)CC=C(c6ccc(C(=O)O)cc6)C(C)(C)[C@@H]5CC[C@]43C)[C@@H]12 | – | – | 800 | – | 20000 | 21 | – | 7 | – | – | – | – |
| C=C(C)[C@@H]1CC[C@]2(C(=O)NCCN(C(C)C)C(C)C)CC[C@]3(C)[C@H](CC[C@@H]4[C@@]5(C)CC=C(c6ccc(C(=O)O)cc6)C(C)(C)[C@@H]5CC[C@]43C)[C@@H]12 | > 2 | 1.31 | 69 | 4.3 | 3000 | 13 | > 2 | 4 | – | 302 | – | – |
| C=C(C)[C@@H]1CC[C@]2(C(=O)NCCOC)CC[C@]3(C)[C@H](CC[C@@H]4[C@@]5(C)CC=C(c6ccc(C(=O)O)cc6)C(C)(C)[C@@H]5CC[C@]43C)[C@@H]12 | – | – | – | – | 14000 | 152 | – | 17 | – | – | – | – |
| C=C(C)[C@@H]1CC[C@]2(C(=O)NS(=O)(=O)C3CC3)CC[C@]3(C)[C@H](CC[C@@H]4[C@@]5(C)CC=C(c6ccc(C(=O)O)cc6)C(C)(C)[C@@H]5CC[C@]43C)[C@@H]12 | – | – | 1190 | – | 18000 | 67 | – | 59 | 166 | – | – | – |
| C=C(C)[C@@H]1CC[C@]2(C(=O)NCCO)CC[C@]3(C)[C@H](CC[C@@H]4[C@@]5(C)CC=C(c6ccc(C(=O)O)cc6)C(C)(C)[C@@H]5CC[C@]43C)[C@@H]12 | – | – | > 2000 | – | 7000 | 41 | – | 7 | 39 | – | – | – |
| C=C(C)[C@@H]1CC[C@]2(C(=O)O)CC[C@]3(C)[C@H](CC[C@@H]4[C@@]5(C)CC[C@H](OC(=O)CC(C)(C)C(=O)O)C(C)(C)[C@@H]5CC[C@]43C)[C@@H]12 [BEVIRIMAT] | – | – | > 10000 | – | – | – | – | – | – | – | 40 | – |
| C=C(C)[C@@H]1CC[C@]2(C(=O)NCc3ccccn3)CC[C@]3(C)[C@H](CC[C@@H]4[C@@]5(C)CC=C(c6ccc(C(=O)O)cc6)C(C)(C)[C@@H]5CC[C@]43C)[C@@H]12 | – | – | – | – | 1000 | 31 | – | 5 | 9 | – | – | – |
| C=C(C)[C@@H]1CC[C@]2(C(=O)NCCN)CC[C@]3(C)[C@H](CC[C@@H]4[C@@]5(C)CC=C(c6ccc(C(=O)O)cc6)C(C)(C)[C@@H]5CC[C@]43C)[C@@H]12 | – | – | 702 | – | 4000 | 7 | – | 3 | – | – | – | – |
| C=C(C)[C@@H]1CC[C@]2(C(=O)NS(C)(=O)=O)CC[C@]3(C)[C@H](CC[C@@H]4[C@@]5(C)CC=C(c6ccc(C(=O)O)cc6)C(C)(C)[C@@H]5CC[C@]43C)[C@@H]12 | – | – | – | – | 16000 | 282 | – | 47 | 1520 | – | – | – |
| C=C(C)[C@@H]1CC[C@]2(C(=O)N3CCCCC3)CC[C@]3(C)[C@H](CC[C@@H]4[C@@]5(C)CC=C(c6ccc(C(=O)O)cc6)C(C)(C)[C@@H]5CC[C@]43C)[C@@H]12 | – | – | – | – | 200 | – | – | 369 | 1580 | – | – | – |
| C=C(C)[C@@H]1CC[C@]2(C(=O)NCCN(CC)CC)CC[C@]3(C)[C@H](CC[C@@H]4[C@@]5(C)CC=C(c6ccc(C(=O)O)cc6)C(C)(C)[C@@H]5CC[C@]43C)[C@@H]12 | – | 0.809 | 39 | 3.3 | 33000 | 7 | – | 2 | – | 229 | – | – |
| C=C(C)[C@@H]1CC[C@]2(C(=O)NCc3nccs3)CC[C@]3(C)[C@H](CC[C@@H]4[C@@]5(C)CC=C(c6ccc(C(=O)O)cc6)C(C)(C)[C@@H]5CC[C@]43C)[C@@H]12 | – | – | 690 | – | 6000 | 28 | – | 15 | – | – | – | – |
| C=C(C)[C@@H]1CC[C@]2(C(=O)NCCNCC(=O)O)CC[C@]3(C)[C@H](CC[C@@H]4[C@@]5(C)CC=C(c6ccc(C(=O)O)cc6)C(C)(C)[C@@H]5CC[C@]43C)[C@@H]12 | – | – | 61 | – | > 2000 | 15 | – | 42 | – | – | – | – |
| C=C(C)[C@@H]1CC[C@]2(C(=O)NCCN(C)CC(=O)O)CC[C@]3(C)[C@H](CC[C@@H]4[C@@]5(C)CC=C(c6ccc(C(=O)O)cc6)C(C)(C)[C@@H]5CC[C@]43C)[C@@H]12 | – | – | 160 | – | 200 | 51 | – | 10 | – | – | – | – |
| C=C(C)[C@@H]1CC[C@]2(C(=O)NCC(N)=O)CC[C@]3(C)[C@H](CC[C@@H]4[C@@]5(C)CC=C(c6ccc(C(=O)O)cc6)C(C)(C)[C@@H]5CC[C@]43C)[C@@H]12 | – | – | 2000 | – | 9000 | 32 | – | 6 | – | – | – | – |
| C=C(C)[C@@H]1CC[C@]2(C(=O)NCCN(C)C(C)=O)CC[C@]3(C)[C@H](CC[C@@H]4[C@@]5(C)CC=C(c6ccc(C(=O)O)cc6)C(C)(C)[C@@H]5CC[C@]43C)[C@@H]12 | – | – | 224 | – | 9000 | 2 | – | 3 | – | – | – | – |
| C=C(C)[C@@H]1CC[C@]2(C(=O)NCCN(CC)CCC(=O)O)CC[C@]3(C)[C@H](CC[C@@H]4[C@@]5(C)CC=C(c6ccc(C(=O)O)cc6)C(C)(C)[C@@H]5CC[C@]43C)[C@@H]12 | – | – | 119 | – | > 17000 | 6 | – | 2 | – | – | – | – |
| C=C(C)[C@@H]1CC[C@]2(C(=O)NCC(=O)O)CC[C@]3(C)[C@H](CC[C@@H]4[C@@]5(C)CC=C(c6ccc(C(=O)O)cc6)C(C)(C)[C@@H]5CC[C@]43C)[C@@H]12 | – | – | > 2000 | – | > 50000 | > 2000 | – | 106 | – | – | – | – |
| C=C(C)[C@@H]1CC[C@]2(C(=O)NCCN(CC(=O)O)CC(=O)O)CC[C@]3(C)[C@H](CC[C@@H]4[C@@]5(C)CC=C(c6ccc(C(=O)O)cc6)C(C)(C)[C@@H]5CC[C@]43C)[C@@H]12 | – | – | > 2000 | – | > 20000 | > 2000 | – | > 2000 | – | – | – | – |
| C=C(C)[C@@H]1CC[C@]2(C(=O)NCCC(C)C)CC[C@]3(C)[C@H](CC[C@@H]4[C@@]5(C)CC=C(c6ccc(C(=O)O)cc6)C(C)(C)[C@@H]5CC[C@]43C)[C@@H]12 | – | 1.58 | 1610 | 0.6 | 11000 | 101 | – | 47 | – | 731 | – | – |
| C=C(C)[C@@H]1CC[C@]2(C(=O)NCCN3CCOCC3)CC[C@]3(C)[C@H](CC[C@@H]4[C@@]5(C)CC=C(c6ccc(C(=O)O)cc6)C(C)(C)[C@@H]5CC[C@]43C)[C@@H]12 | – | – | 77 | – | 5000 | 12 | – | 7 | 28 | – | – | – |
| C=C(C)[C@@H]1CC[C@]2(C(=O)NCCCN(C)C)CC[C@]3(C)[C@H](CC[C@@H]4[C@@]5(C)CC=C(c6ccc(C(=O)O)cc6)C(C)(C)[C@@H]5CC[C@]43C)[C@@H]12 | > 2 | 0.116 | 50 | 8.3 | 500 | 9 | > 2 | 2 | 3 | 36 | – | – |
| C=C(C)[C@@H]1CC[C@]2(C(=O)NCCNC(C)=O)CC[C@]3(C)[C@H](CC[C@@H]4[C@@]5(C)CC=C(c6ccc(C(=O)O)cc6)C(C)(C)[C@@H]5CC[C@]43C)[C@@H]12 | – | – | 361 | – | 12000 | 24 | – | 5 | 22 | – | – | – |
| C=C(C)[C@@H]1CC[C@]2(C(=O)O)CC[C@]3(C)[C@H](CC[C@@H]4[C@@]5(C)CC=C(c6ccc(C(=O)O)cc6)C(C)(C)[C@@H]5CC[C@]43C)[C@@H]12 | – | – | > 6000 | – | – | – | – | – | – | – | – | 4 |
| C=C(C)[C@@H]1CC[C@]2(C(=O)NCCN3CCCCC3)CC[C@]3(C)[C@H](CC[C@@H]4[C@@]5(C)CC=C(c6ccc(C(=O)O)cc6)C(C)(C)[C@@H]5CC[C@]43C)[C@@H]12 | – | – | 359 | – | 10000 | 10 | – | 7 | – | – | – | – |

Source: ChEMBL document CHEMBL3784995, “Inhibitors of HIV-1 maturation: Development of structure-activity relationship for C-28 amides based on C-3 benzoic acid-modified triterpenoids” (Bioorg Med Chem Lett, 2016)
